The NIST ThermoML archive (doi:10.1016/j.jct.2010.08.004)
± gives the expanded uncertainty stated by the source.

Test: mn = molality of the nth substance listed, in mol/kg
Details: 101 kPa, Liquid, Vibrating tube method

## NCC(=O)O [2-aminoacetic acid] + O
293.15 K, m1 = 0.05482
  mass density: 999.976 ± 0.034 kg/m3
293.15 K, m1 = 0.1106
  mass density: 1001.75 ± 0.035 kg/m3
293.15 K, m1 = 0.1792
  mass density: 1003.91 ± 0.036 kg/m3
293.15 K, m1 = 0.2044
  mass density: 1004.69 ± 0.036 kg/m3
293.15 K, m1 = 0.2754
  mass density: 1006.9 ± 0.038 kg/m3
293.15 K, m1 = 0.2966
  mass density: 1007.58 ± 0.038 kg/m3
298.15 K, m1 = 0.05482
  mass density: 998.789 ± 0.034 kg/m3
298.15 K, m1 = 0.1106
  mass density: 1000.54 ± 0.034 kg/m3
298.15 K, m1 = 0.1792
  mass density: 1002.68 ± 0.036 kg/m3
298.15 K, m1 = 0.2044
  mass density: 1003.46 ± 0.036 kg/m3
298.15 K, m1 = 0.2754
  mass density: 1005.64 ± 0.037 kg/m3
298.15 K, m1 = 0.2966
  mass density: 1006.28 ± 0.038 kg/m3
303.15 K, m1 = 0.05482
  mass density: 997.364 ± 0.035 kg/m3
303.15 K, m1 = 0.1106
  mass density: 999.102 ± 0.035 kg/m3
303.15 K, m1 = 0.1792
  mass density: 1001.22 ± 0.035 kg/m3
303.15 K, m1 = 0.2044
  mass density: 1002 ± 0.036 kg/m3
303.15 K, m1 = 0.2754
  mass density: 1004.17 ± 0.037 kg/m3
303.15 K, m1 = 0.2966
  mass density: 1004.81 ± 0.037 kg/m3
308.15 K, m1 = 0.1106
  mass density: 997.455 ± 0.035 kg/m3
308.15 K, m1 = 0.1792
  mass density: 999.562 ± 0.035 kg/m3
308.15 K, m1 = 0.2044
  mass density: 1000.33 ± 0.035 kg/m3
308.15 K, m1 = 0.2754
  mass density: 1002.5 ± 0.036 kg/m3
308.15 K, m1 = 0.2966
  mass density: 1003.13 ± 0.037 kg/m3

## CC(C)C[C@H](N)C(=O)O [L-leucine] + O
293.15 K, m1 = 0.03401
  mass density: 999.039 ± 0.034 kg/m3
293.15 K, m1 = 0.03488
  mass density: 999.061 ± 0.034 kg/m3
293.15 K, m1 = 0.05007
  mass density: 999.427 ± 0.034 kg/m3
293.15 K, m1 = 0.08154
  mass density: 1000.18 ± 0.034 kg/m3
293.15 K, m1 = 0.119
  mass density: 1001.08 ± 0.034 kg/m3
293.15 K, m1 = 0.1427
  mass density: 1001.64 ± 0.035 kg/m3
298.15 K, m1 = 0.03401
  mass density: 997.855 ± 0.035 kg/m3
298.15 K, m1 = 0.03488
  mass density: 997.877 ± 0.034 kg/m3
298.15 K, m1 = 0.05007
  mass density: 998.236 ± 0.034 kg/m3
298.15 K, m1 = 0.08154
  mass density: 998.978 ± 0.034 kg/m3
298.15 K, m1 = 0.119
  mass density: 999.854 ± 0.034 kg/m3
298.15 K, m1 = 0.1427
  mass density: 1000.41 ± 0.034 kg/m3
303.15 K, m1 = 0.03401
  mass density: 996.441 ± 0.035 kg/m3
303.15 K, m1 = 0.03488
  mass density: 996.462 ± 0.035 kg/m3
303.15 K, m1 = 0.05007
  mass density: 996.817 ± 0.035 kg/m3
303.15 K, m1 = 0.08154
  mass density: 997.55 ± 0.035 kg/m3
303.15 K, m1 = 0.119
  mass density: 998.417 ± 0.035 kg/m3
303.15 K, m1 = 0.1427
  mass density: 998.966 ± 0.035 kg/m3
308.15 K, m1 = 0.03401
  mass density: 994.81 ± 0.036 kg/m3
308.15 K, m1 = 0.03488
  mass density: 994.83 ± 0.036 kg/m3
308.15 K, m1 = 0.05007
  mass density: 995.182 ± 0.036 kg/m3
308.15 K, m1 = 0.08154
  mass density: 995.908 ± 0.036 kg/m3
308.15 K, m1 = 0.119
  mass density: 996.767 ± 0.035 kg/m3
308.15 K, m1 = 0.1427
  mass density: 997.31 ± 0.035 kg/m3

## CC(C)[C@H](N)C(=O)O [L-valine] + O
293.15 K, m1 = 0.04524
  mass density: 999.424 ± 0.034 kg/m3
293.15 K, m1 = 0.09973
  mass density: 1000.87 ± 0.034 kg/m3
293.15 K, m1 = 0.152
  mass density: 1002.24 ± 0.035 kg/m3
293.15 K, m1 = 0.1964
  mass density: 1003.4 ± 0.035 kg/m3
293.15 K, m1 = 0.2542
  mass density: 1004.9 ± 0.036 kg/m3
293.15 K, m1 = 0.2955
  mass density: 1006.01 ± 0.037 kg/m3
298.15 K, m1 = 0.04524
  mass density: 998.244 ± 0.034 kg/m3
298.15 K, m1 = 0.09973
  mass density: 999.672 ± 0.034 kg/m3
298.15 K, m1 = 0.152
  mass density: 1001.03 ± 0.034 kg/m3
298.15 K, m1 = 0.1964
  mass density: 1002.18 ± 0.035 kg/m3
298.15 K, m1 = 0.2542
  mass density: 1003.67 ± 0.036 kg/m3
298.15 K, m1 = 0.2955
  mass density: 1004.72 ± 0.037 kg/m3
303.15 K, m1 = 0.04524
  mass density: 996.827 ± 0.035 kg/m3
303.15 K, m1 = 0.09973
  mass density: 998.242 ± 0.035 kg/m3
303.15 K, m1 = 0.152
  mass density: 999.59 ± 0.034 kg/m3
303.15 K, m1 = 0.1964
  mass density: 1000.73 ± 0.035 kg/m3
303.15 K, m1 = 0.2542
  mass density: 1002.2 ± 0.036 kg/m3
303.15 K, m1 = 0.2955
  mass density: 1003.25 ± 0.036 kg/m3
308.15 K, m1 = 0.04524
  mass density: 995.195 ± 0.036 kg/m3
308.15 K, m1 = 0.09973
  mass density: 996.6 ± 0.035 kg/m3
308.15 K, m1 = 0.152
  mass density: 997.939 ± 0.035 kg/m3
308.15 K, m1 = 0.1964
  mass density: 999.067 ± 0.035 kg/m3
308.15 K, m1 = 0.2542
  mass density: 1000.53 ± 0.035 kg/m3
308.15 K, m1 = 0.2955
  mass density: 1001.56 ± 0.036 kg/m3
